What was measured:
Assay type in all cases: functional
B16 [1] = experiment: Inhibition of melanogenesis in mouse B16 cells assessed as intracellular melanogenesis activity at 6.25 uM after 72 hrs relative to control; design: scale not given: the % may be the effect or the level left
B16 [2] = experiment: Inhibition of melanogenesis in mouse B16 cells assessed as extracellular melanogenesis activity at 6.25 uM after 72 hrs relative to control; design: scale not given: the % may be the effect or the level left
B16 [3] = experiment: Inhibition of melanogenesis in mouse B16 cells assessed as intracellular melanogenesis activity at 25 uM after 72 hrs relative to control; design: scale not given: the % may be the effect or the level left
B16 [4] = experiment: Antiproliferative activity against mouse B16 cells assessed as cell proliferation level at 12.5 uM after 72 hrs by MTT assay relative to control
B16 [5] = experiment: Antiproliferative activity against mouse B16 cells assessed as cell proliferation level at 25 uM after 72 hrs by MTT assay relative to control
B16 [6] = experiment: Inhibition of melanogenesis in mouse B16 cells assessed as intracellular melanogenesis activity at 12.5 uM after 72 hrs relative to control; design: scale not given: the % may be the effect or the level left
B16 [7] = experiment: Antiproliferative activity against mouse B16 cells assessed as cell proliferation level at 50 uM after 72 hrs by MTT assay relative to control
B16 [8] = experiment: Inhibition of melanogenesis in mouse B16 cells assessed as extracellular melanogenesis activity at 12.5 uM after 72 hrs relative to control; design: scale not given: the % may be the effect or the level left
B16 [9] = experiment: Inhibition of melanogenesis in mouse B16 cells assessed as extracellular melanogenesis activity at 25 uM after 72 hrs relative to control; design: scale not given: the % may be the effect or the level left
B16 [10] = experiment: Antiproliferative activity against mouse B16 cells assessed as cell proliferation level at 6.25 uM after 72 hrs by MTT assay relative to control
B16 [11] = experiment: Inhibition of melanogenesis in mouse B16 cells assessed as intracellular melanogenesis activity at 50 uM after 72 hrs relative to control; design: scale not given: the % may be the effect or the level left
B16 [12] = experiment: Inhibition of melanogenesis in mouse B16 cells assessed as extracellular melanogenesis activity at 50 uM after 72 hrs relative to control; design: scale not given: the % may be the effect or the level left
B16 [13] = experiment: Inhibition of melanogenesis in mouse B16 cells assessed as extracellular melanogenesis activity at 730 uM after 72 hrs relative to control; design: scale not given: the % may be the effect or the level left
B16 [14] = experiment: Antiproliferative activity against mouse B16 cells assessed as cell proliferation level at 730 uM after 72 hrs by MTT assay relative to control
B16 [15] = experiment: Inhibition of melanogenesis in mouse B16 cells assessed as intracellular melanogenesis activity at 730 uM after 72 hrs relative to control; design: scale not given: the % may be the effect or the level left

SMILES	Activity (B16 [1]) [%]	Activity (B16 [2]) [%]	Activity (B16 [3]) [%]	Activity (B16 [4]) [%]	Activity (B16 [5]) [%]	Activity (B16 [6]) [%]	Activity (B16 [7]) [%]	Activity (B16 [8]) [%]	Activity (B16 [9]) [%]	Activity (B16 [10]) [%]	Activity (B16 [11]) [%]	Activity (B16 [12]) [%]	Activity (B16 [13]) [%]	Activity (B16 [14]) [%]	Activity (B16 [15]) [%]
COc1cc(O)c2c(=O)cc(-c3ccc(O)c(O)c3)oc2c1	108	107	50	85	55	87	41	51	14	98	50	16	–	–	–
OC[C@H]1O[C@@H](Oc2ccc(O)cc2)[C@H](O)[C@@H](O)[C@@H]1O [ARBUTIN]	–	–	–	–	–	–	–	–	–	–	–	–	45	105	89
O=c1cc(-c2ccc(O)c(O)c2)oc2cc(O)cc(O)c12 [LUTEOLIN]	122	114	66	110	68	118	34	109	15	106	55	16	–	–	–

— ChEMBL document CHEMBL4118264, “Selective synthesis of 7-O-substituted luteolin derivatives and their melanonenesis and proliferation inhibitory activity in B16 melanoma cells” (2018)
